In publication PMC11783601, “Analogue-Sensitive Inhibition of Histone Demethylases Uncovers Member-Specific Function in Ribosomal Protein Synthesis” (Journal of the American Chemical Society, 2025):
“Also recorded” adds a separate entry of the source.

Tests used:
[1] = system: 47S rRNA precursor in HEK293T cells; assay: Fluorescence in situ hybridization (FISH) of 47S precursor rRNA; assay type: cell-based, human; conditions: HEK293T cells expressing F185A
Protocol: We next examined the mechanistic link between KDM4A-mediated promoter demethylation and rRNA upregulation (Figure 7A). To confirm that KDM4A specifically stimulates rRNA synthesis, we performed fluorescence in situ hybridization (FISH) using a fluoresceine-attached short DNA complementary to the 47S rRNA precursor. Overexpression of wild type KDM4A and its as variant indeed led to increased expression of the precursor rRNA compared to that of the control vector (Figure 7B,C).
(Sigma B2883-25MG) for 30 seconds, washed with PBS and finally adhered to a slide with gelvatol. The cells were imaged at University of Pittsburgh Center for Biological Imaging on an Olympus Fluoview 1000 II, grant number 1S10OD019973-01 using excitation and emission wavelengths corresponding to that of Rhodamine. Images were analyzed on ImageJ open-source software and NIS elements software.
17. Analysis of rRNA expression in HEK293T cells using fluorescence in-situ hybridization HEK293-T cells (ATCC CRL-1573) were grown in a 24 well plate (Corning) on poly-D-lysine (Gibco A3890401) treated glass coverslips (ThermoScientific 12-545-81P) overnight and transfected the next day with 500 ng KDM4A WT/F185A or Empty Vector (EV) equivalent using 1:2 ug of Thermo Turbofect (FERR0531). […] Images were analyzed on ImageJ open-source software and NIS elements software. […]

wild type 2OG enzymes = assay: Off-target activity across wild type 2OG enzymes (MALDI-MS or dot blots); assay type: biochemical, human; conditions: concentrations up to 200 μM
Excerpt: We sought to examine the orthogonality of compound 6 across the human 2OG enzyme family. […] These amino acids, bulky and hydrophobic in nature, likely act as the gatekeeper and preclude binding of the NOG analogues to wild type enzymes. To test the off-target activity of 6, we recombinantly expressed the catalytic domains of 12 wild type dioxygenases, in addition to KDM4A-E, thus covering 30–40% of human 2OG enzymes known to have well-characterized substrates (Figure 3D).

SMILES: CC(C)CC(NC(=O)C(=O)OCc1cccc(C(F)(F)F)c1)C(=O)O [6B, L-Leu TFMB-ester NOG]
- transcription of the 47S precursor rRNA [1]: significantly reduced; also recorded: decreased expression of pre-rRNA

SMILES: CC(C)CC(NC(=O)C(=O)O)C(=O)O (centres unmarked) [compound 6, N-oxalyl leucine]
- inhibition of wild type 2OG enzymes (wild type 2OG enzymes): did not inhibit
